The record followed here is patent US9340577B2, “HLA binding motifs and peptides and their uses” (priority 1992, dated 2016).

Experiment in all cases: biochemical
The target of assay [1] is DRB1*0901 (Homo sapiens, UniProt P01903+P01911, A100R/A103E/D57H/D86V/F55Y/F60I/F76Y/I96F/K127E/L162R/M171V/P40D/Q125H/Q99R/R33Q/R42F/S133A/S66N/T210M/V115G/W38K/Y107V/Y59G/Y89S). The format is binding.
For assay [2], the target named is DRB1*1101 (Homo sapiens, UniProt P01903+P01911, A100R/A169T/A87E/I96F/K41T/L162R/M171V/P40S/Q125H/Q178H/Q39Y/Q99D/R42S/S66Y/T262R/V115G/W38E). The conditions noted are these: Binding affinity DRB1 *1101.
Chain of DRB1*1101 (P01903 26-254 limits assumed, other chains not shown): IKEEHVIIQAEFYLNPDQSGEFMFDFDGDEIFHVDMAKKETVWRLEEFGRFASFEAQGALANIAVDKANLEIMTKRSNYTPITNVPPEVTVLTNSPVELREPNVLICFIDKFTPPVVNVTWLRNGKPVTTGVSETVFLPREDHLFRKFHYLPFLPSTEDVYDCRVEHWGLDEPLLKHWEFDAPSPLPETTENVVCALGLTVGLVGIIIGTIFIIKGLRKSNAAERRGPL
Assay [3] deals with DRB1*0802 (Homo sapiens, UniProt P01903+P01911, A100R/A103L/A169T/F76Y/H45Y/I96F/K41T/L162R/M171V/P40S/Q125H/Q178H/Q39Y/Q99D/R218S/R42G/S66Y/V115G/W38E). The format is binding.
The target in assay [4] is DRB5*0101 (Homo sapiens, UniProt P01903+Q30154). The conditions noted are these: Binding affinity DRB5 *0101.
For assay [5], the target named is DRB1*1501 (Homo sapiens, UniProt P01903+P01911). The format is binding.
For assay [6], the target named is DRB4*0101 (Homo sapiens, UniProt P01903+P13762, G164S). It counts as binding.
For assay [7], the target named is DRB1*0301 (Homo sapiens, UniProt P01903+P01911, A100K/A102G/A103R/A169T/F55Y/I96L/K41T/L162R/M171V/P40S/Q125H/Q178H/Q39Y/R42S/S66N/T106N/T262R/W38E/Y61H). It counts as binding.
Chain of DRB1*0301 (P01903 26-254 limits assumed, other chains not shown): as above
Assay [8] has as its target DR7 (DRB1*0701) (Homo sapiens, UniProt P01903+P01911, A100R/A102G/A103Q/D57E/D86V/E43K/F76Y/K127E/L162R/M171V/P40G/Q125H/Q99D/R33Q/R42Y/R54Q/S133A/S66F/T210M/V115G/Y107V/Y59L/Y89S). The format is binding.
For assay [9], the target named is DR1 (DRB1*0101) (Homo sapiens, UniProt P01903+P01911, A100R/D57E/F55L/F60I/F76Y/I96L/L162R/M171V/P40L/Q125E/R42F/V115G/Y59C). The format is binding.
Assay [10] addresses DR4w4 (DRB1*0401) (Homo sapiens, UniProt P01903+P01911, A100K/A169T/F76Y/I96L/K127E/L162R/M171V/N62H/P40V/Q125Y/R42H/S133A/S149N/S66Y/V115G/V209L/W38E). It counts as binding.
Assay [11] concerns the target DRB1*1302 (Homo sapiens, UniProt P01903+P01911, A100E/A169T/K41T/L162R/M171V/P40S/Q125H/Q178H/Q39Y/Q99D/R42S/S66N/T262R/V115G/W38E/Y61H). The format is binding.
Assay [12] concerns the target DRB1*0405 (Homo sapiens, UniProt P01903+P01911, A100R/A169T/D86S/F76Y/I96L/K127E/L162R/M171V/N62H/P40V/Q125Y/R42H/S133A/S149N/S66Y/V115G/V209L/W38E). The format is binding.
Assay [13] addresses DRB1*1201 (Homo sapiens, UniProt P01903+P01911, A100R/A169T/D57E/D86V/F55L/H45Y/K41T/L162R/M171V/P40S/Q125H/Q178H/Q39Y/Q99D/R42G/S66L/T262R/V114A/V67L/W38E/Y59H/Y61H/Y89S). The format is binding.

No end group written: not given here.

Chain of DRB1*1302 (P01903 26-254 limits assumed, other chains not shown): as above

For orientation: IC50 means the midpoint of a concentration-inhibition curve. Read a high IC50 as weaker potency in that assay. For the molecule GLYYWCDGEKIYFVK [Peptide 90.0226], the IC50 in assay [1] was greater than 20 µM; in [2], 9.14 µM; in assay [3] it was greater than 20 µM; in assay [4], greater than 20 µM; in assay [5], 1.3 µM; in [6], greater than 20 µM. For the same molecule, the values for the IC50 in [7], in assay [8] and in assay [9] were 0.432 µM, 4.93 µM and 0.698 µM, respectively.

Consider TVEVQFDGDICNTMH [Peptide 90.0167], for which the half-maximal inhibitory concentration (IC50) is 0.583 µM in assay [1]; greater than 20 µM in assay [2]; 0.818 µM in [10]; greater than 20 µM in [3]; greater than 20 µM in [4]; 5.08 µM in assay [5]. Further, the concentration for half-maximal inhibition (IC50) was 0.039 µM in assay [11]; greater than 20 µM in [12]; greater than 20 µM in [13]; 0.235 µM in assay [6]; 0.25 µM in [8]; 2.3 µM in assay [9].

For FIHFLQGAIISFVNS [Peptide 89.0088], the IC50 in assay [1] was 0.867 µM; in assay [2], 5.6 µM; in [10], 2.91 µM; in assay [3], greater than 20 µM; in assay [4], greater than 20 µM; in assay [11], 1.59 µM. The figures for the IC50 in [6], in [7] and in assay [9] were 1.68 µM, 4.39 µM and 0.051 µM, respectively.

Consider KWGVLILALLRYKCG [Peptide 89.0027], for which the 50% inhibitory concentration (IC50) in assay [1] is 0.81 µM; in [2], 0.49 µM; in assay [10] it was 0.584 µM; in assay [5], 3.74 µM; in assay [11] it was 0.571 µM; in assay [7], greater than 20 µM. Also, the IC50 in assay [8] was greater than 20 µM.

With LNVLKTSNAKAAMLA [Peptide 89.0003], the concentration for half-maximal inhibition (IC50) in assay [1] was found to be 0.197 µM; in assay [2], 0.198 µM; in [10] it was 0.0034 µM; in assay [4] it was 0.768 µM; in [11], 0.0089 µM; in assay [12], 2.38 µM. In addition, the half-inhibitory concentration (IC50) in assay [13] turned out to be 0.531 µM; in [6], 0.509 µM; in assay [8], 0.02 µM; in assay [9], 0.033 µM.

Regarding CTLVAGEVDYVGLYY [Peptide 90.0252], the concentration for half-maximal inhibition (IC50) in assay [1] was 0.981 µM; in assay [2] it was 6.72 µM; in assay [10] it was 0.776 µM; in assay [3] it was greater than 20 µM; in assay [4], greater than 20 µM; in assay [5], greater than 20 µM. For the same molecule, the IC50 in assay [11] is 0.714 µM; in [12], 9.02 µM; in assay [13], 3.63 µM; in [6] it was 0.02 µM; in [8], greater than 20 µM; in [9], greater than 20 µM.

Turning to HIEFTPTRTDTYACRV [Peptide 530.12], the IC50 in assay [7] is 30 µM; in [8] it was greater than 12.5 µM.

Regarding LIRMECAIMYTARQM [Peptide 90.0022], the half-inhibitory concentration (IC50) in assay [1] amounted to 4.12 µM; in assay [2], 0.738 µM; in assay [10], 0.433 µM; in assay [3] it was 3.06 µM; in assay [4], 6.47 µM; in [5] it was 1.48 µM. Also, the IC50 in assay [11] was determined as 0.241 µM; in assay [12] it was 0.815 µM; in assay [13] it was 0.201 µM; in assay [6], 0.158 µM; in [8], 0.473 µM.

In [7], NGVLQGITSWGSEPC [Peptide 68.0081] returned an IC50 greater than 20 µM.

Regarding DLRVVQQLLMGALTV [Peptide 85.0092], the half-inhibitory concentration (IC50) in assay [2] was 0.754 µM; in assay [5], 0.057 µM; in assay [7] it was greater than 20 µM.

In assay [7], `CC[C@H](C)[C@H](NC(=O)[C@@H](NC(=O)[C@@H]1CCCN1C(=O)[C@H](Cc1ccccc1)NC(=O)[C@H](Cc1ccccc1)NC(=O)[C@H](Cc1ccc(O)cc1)NC(=O)[C@H](CCC(N)=O)NC(=O)[C@H](Cc1c[nH]c2ccccc12)NC(=O)[C@H](CC(N)=O)NC(=O)CNC(=O)[C@@H](N)C(C)C)C(C)C)C(=O)N[C@@H](Cc1ccccc1)C(=O)N[C@@H](CO)C(=O)N[C@@H](CCCCN)C(=O)N[C@@H](C)C(=O)O` [Peptide 58.0114] showed a half-inhibitory concentration (IC50) of 0.0041 µM. That is a single-digit nanomolar value.

For the molecule GGDWKQIVMFLRYQG [Peptide 89.0013], the IC50 in assay [2] worked out at 0.198 µM; in [10] it was 0.793 µM; in assay [4], 0.014 µM; in assay [11], 0.899 µM; in assay [6], 0.0079 µM; in assay [7] it was 6.32 µM. Besides, the IC50 in [8] is 2.46 µM; in assay [9], 2.04 µM.

Regarding LVEVTLGEVPAAESPD [Peptide F160.17], the results for the 50% inhibitory concentration (IC50) in [10] and in assay [7] were 0.976 µM and 4.02 µM, respectively.

Consider DPRWPYLHSRLVVFH [Peptide 89.0113], for which the IC50 came to 5.4 µM in [1]; 5.14 µM in [2]; 0.138 µM in assay [10]; 19.8 µM in assay [3]; 0.013 µM in assay [11]; 6.1 µM in assay [12]. Also, the IC50 worked out at 5.93 µM in assay [13], 0.098 µM in assay [6] and 0.09 µM in assay [8].

As for MAIFGVNPTVAEGFK [Peptide 89.0081], the 50% inhibitory concentration (IC50) in [1] was 1.56 µM; in assay [2], 0.041 µM; in assay [10], 0.075 µM; in assay [3], 1.09 µM; in assay [11], 0.035 µM; in assay [12], 0.036 µM. Besides, the figures for the IC50 in [13] and in assay [6] were 1.2 µM and 0.426 µM, respectively.

`CC(C)C[C@H](NC(=O)[C@H](CCC(=O)O)NC(=O)[C@H](CCCCN)NC(=O)[C@H](C)N)C(=O)N[C@@H](CCCCN)C(=O)N[C@@H](Cc1ccccc1)C(=O)N[C@H](C(=O)N[C@H](C(=O)N[C@@H](CC(C)C)C(=O)N[C@H](C(=O)N[C@@H](Cc1ccccc1)C(=O)N[C@@H](CCCNC(=N)N)C(=O)N[C@@H](Cc1c[nH]cn1)C(=O)NCC(=O)N[C@@H](CC(=O)O)C(=O)O)C(C)C)[C@@H](C)O)C(C)C` [Peptide 68.0025]: the IC50 in assay [7] was greater than 20 µM.

As to TPEWIQRQTVLQHSF [Peptide 89.0010], the IC50 in assay [1] was 2.87 µM; in [2] it was 0.738 µM; in assay [10], 0.08 µM; in assay [3] it was 2 µM; in assay [4], 4.12 µM; in assay [5], greater than 20 µM. The IC50 in [11] was 2.1 µM; in assay [12], 0.017 µM; in assay [13], greater than 20 µM; in assay [6] it was 0.033 µM; in assay [8] it was 0.321 µM.

In the case of TTIYNNEEWTLRDTC [Peptide 90.0232], the IC50 was greater than 20 µM in assay [1]; 3.43 µM in [2]; greater than 20 µM in assay [10]; greater than 20 µM in [3]; greater than 20 µM in [4]; 10.2 µM in assay [5]. The 50% inhibitory concentration (IC50) was 1.01 µM in [11]; greater than 20 µM in assay [12]; greater than 20 µM in assay [13]; greater than 20 µM in assay [6]; greater than 20 µM in assay [8]; 10.6 µM in [9].

On to RLNLDNDEDKENNGD [Peptide 90.0144], for which the IC50 in [1] worked out at 19.7 µM; in [2], 1.6 µM; in assay [10] it was 1.78 µM; in [3], 4.01 µM; in assay [5], 0.581 µM; in [11], 1.39 µM. Also, the IC50 in assay [12] amounted to 1.68 µM; in assay [13], 4.41 µM; in assay [6], 0.025 µM; in [8], 0.865 µM; in assay [9], 0.031 µM.
